# Measurements taken from patent US8614220B2, “Substituted pyrazolo-quinazoline derivatives, process for their preparation and their use as kinase inhibitors” (priority 2006, dated 2013).
# System: A2780 human ovarian cancer cells
# Assay: In vitro cell proliferation assay (CellTiter-Glo, 72 hours)
# Type: cell-based
# Experimental: In Vitro Cell Proliferation Assay
# A2780 human ovarian and MCF7 human breast cancer cells (1250 cells/well) were seeded in white 384 well-plates in complete medium (RPMI1640 or EMEM plus 10% Fetal bovine serum) and treated with compounds dissolved in 0.1% DMSO, 24 h after seeding. The cells were incubated at 37° C. and 5% CO2 and after 72 hours the plates were processed using CellTiter-Glo assay (Promega) following the manufacturer's instruction.
# CellTiter-Glo is a homogenous method based on the quantification of the ATP present, an indicator of metabolitically active cells. ATP is quantified using a system based on luciferase and D-luciferin resulting into light generation. The luminescent signal is proportional to the number of cells present in culture.
# Briefly 25 microL/well reagent solution are added to each wells and after 5 minutes shacking microplates are red by a luminometer. The luminescent signal is proportional to the number of cells present in culture.
row,Structure (SMILES),IC50 [nM]
1,CN(C)CCCN1CCN(c2ccc(OC(F)(F)F)c(Nc3ncc4c(n3)-c3c(c(C(N)=O)nn3C)CC4)c2)CC1 [Code A101B1C1Z],520
2,Cc1ccc(N2CCN(C)CC2)cc1Nc1ncc2c(n1)-c1c(c(C(=O)O)nn1C)CC2 [Code A98B1C3Z],1300
3,NC(=O)c1nn(CCF)c2c1CCc1cnc(Nc3ccccc3OC(F)(F)F)nc1-2 [Code A45B2C1Z],500
4,COc1ccc(CO)cc1Nc1ncc2c(n1)-c1c(c(C(N)=O)nn1C)CC2 [Code A47B1C1Z],147
